# In publication PMC3198734 (PLoS ONE, 2011):
# Where no end group is shown, it is not given here.
# Key:
# Acinetobacter baumannii = assay type: cell-based; conditions: data not shown
# [1] = tested on: IL-1β, GM-CSF, KC, RANTES, MIP-1α in BAL fluid; assay type: in vivo, BALB/c mice
Substance,antimicrobial activity of the preparation (Acinetobacter baumannii),"BAL fluid concentration of GM-CSF compared with PR/8 infected control animals ([1]; mouse, in vivo)","BAL fluid concentration of IL-1β compared with PR/8 infected control animals ([1]; mouse, in vivo)","BAL fluid concentration of KC ([1]; mouse, in vivo)","BAL fluid concentration of MIP-1α (non-significant increase after infection) ([1]; mouse, in vivo)","BAL fluid concentration of RANTES ([1]; mouse, in vivo)","BAL fluid cytokine concentrations in the absence of influenza virus infection ([1]; uninfected mice, nebulized peptide, BAL on day 3)"
"GLLRKGGEKIGEKLKKIGQKIKNFFQKLVPQPEQ [mCRAMP, mouse cathelicidin peptide]",confirmed,,,,,,
"RGGRLCYCRRRFCVCVGR-NH2 (also: bicyclic or more (positions not given here)) [Protegrin-1, porcine neutrophil-derived cathelicidin peptide with two disulfide bridges]",confirmed,,,,,,
"LLGDFFRKSKEKIGKEFKRIVQRIKDFLRNLVPRTES [LL-37, human cathelicidin peptide generated from hCAP-18]",confirmed,significantly lower,significantly lower,unchanged compared with uninfected controls,this increase was ameliorated,unchanged compared with uninfected controls,did not significantly alter cytokine concentrations
